Assay results as given in PMC12645137 (Current Neuropharmacology, 2025).

Test system: mice
Experiment: Acute toxicity study
Type: in vivo, albino mice
Details: i.p., doses 25 to 1000 mg/kg
Protocol: In our study, experimental animals (albino mice male/female weighing 18-32 gm) were obtained from the National Institute of Health (NIH), Islamabad, Pakistan. These animals were provided adequate food, water, and light (ad libitum). Appropriate conditions were maintained as per laboratory specifications, including a temperature of 22°C a dark and light cycle of 12 hours each. As per the Animals Scientific Procedure Act 1986, UK, the in-vivo studies were performed on experimental animals from 9:00 am to 4:00 pm. The departmental committee of research ethics of the Pharmacy Department, University of Malakand, approved the study protocol via reference no DREC/20210622/50.
Acute toxicity was carried out for the safety profile assessment of our test compounds. For this purpose, the mice were grouped into six different groups (n = 6). The test compound was given to each mouse at different doses (25 to 1000 mg/kg) via the intraperitoneal (i.p) route. Changes in behaviour such as convulsions, hyperactivity, writhing, sedation, righting reflex, aggressiveness, grooming, ataxia, motor activity (increased or decreased), respiratory arrest, and mortality were observed after the administration of sample solution for the first two hours and then again for 24 hours.

In the case of `COc1ccc(C/N=C(/C)[C@H]2CC[C@H]3[C@@H]4CCC5=CC(=O)CC[C@]5(C)[C@H]4CC[C@]23C)cc1` [AN1, (8S,9S,10R,13S,14S)-17-((Z)-1-((4-methoxybenzyl)imino)ethyl)-10,13-dimethyl-1,2,6,7,8,9,10,11,12,13,14,15,16,17-tetradecahydro-3H-cyc-lopenta[a]phenanthren-3-one], the “toxic dose (mortality observed)” value was no less than 1000 mg/kg and the “dose safe, without toxic effects, mortality or unusual behavioral response” value (observed 2 h and 24 h) was no more than 500 mg/kg.
